Legend:
Assay in all cases: combination Emax (second highest fraction inhibited in the dose matrix, 72 h); higher = more inhibition; extreme values may be limits of the assay
[1] = tested on: CHSA8926 (Chondrosarcoma)
In short: (§1)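 After 24 hours at 37°C and 5% CO2 in 1536-well plates, cells in DMEM/F12 or RPMI plus 10% FBS received two-drug dose matrices for 72 hours. Viability came from CellTiter-Glo 2.0 luminescence and was scaled as inhibition, anchored at 0 by vehicle wells and at 1 by blank wells. Combination Emax is taken as the second-highest inhibition in the matrix, and Bliss excess as the observed combination effect less EA + EB − EA·EB, with EA and EB the single-agent effects.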

[2] = tested on: JHH-4 (Hepatocellular Carcinoma)
In short: as §1

[3] = tested on: RPMI-8226 (Plasma Cell Myeloma)
In short: as §1

[4] = tested on: H9 (T-Cell Non-Hodgkin's Lymphoma)
In short: as §1

[5] = tested on: HCC1187 (Breast Carcinoma)
In short: as §1

[6] = tested on: NCI-H520 (Squamous Cell Lung Carcinoma)
In short: as §1

[7] = tested on: IM-95 (Gastric Carcinoma)
In short: as §1

[8] = tested on: SUP-B15 (B-Lymphoblastic Leukemia)
In short: as §1

[9] = tested on: ESO51 (Esophageal Adenocarcinoma)
In short: as §1

[10] = tested on: VMRC-RCZ (Kidney Carcinoma)
In short: as §1

[11] = tested on: KU812 (Chronic Myelogenous Leukemia)
In short: as §1

[12] = tested on: RD (Rhabdomyosarcoma)
In short: as §1

[13] = tested on: SK-GT-4 (Esophageal Adenocarcinoma)
In short: as §1

[14] = tested on: HCC1419 (Breast Carcinoma)
In short: as §1

[15] = tested on: KYSE-270 (Esophageal Squamous Cell Carcinoma)
In short: as §1

[16] = tested on: T-T (Esophageal Squamous Cell Carcinoma)
In short: as §1

[17] = tested on: SJSA-1 (Osteosarcoma)
In short: as §1

[18] = tested on: KP-3 (Pancreatic Carcinoma)
In short: as §1

[19] = tested on: KY821 (Acute Myeloid Leukemia)
In short: as §1

[20] = tested on: SNU-398 (Hepatocellular Carcinoma)
In short: as §1

CN(C)CCCOc1ccc(-c2ccc3ncc4c(c3c2)n(C2CCOCC2)c(=O)n4C)cn1 [AZD0156] + O=C(c1cc(Cc2n[nH]c(=O)c3ccccc23)ccc1F)N1CCN(C(=O)C2CC2)CC1 [Olaparib] (first compound max 3 µM, partner max 3 µM)
combination Emax [1]: 0.467 | combination Emax [2]: 0.22 | combination Emax [3]: 0.421 | combination Emax [4]: 0.445 | combination Emax [5]: 0.197 | combination Emax [6]: 0.473 | combination Emax [7]: 0.151 | combination Emax [8]: 0.675 | combination Emax [9]: 0.348 | combination Emax [10]: 0.181 | combination Emax [11]: 0.64 | combination Emax [12]: 0.238 | combination Emax [13]: 0.37 | combination Emax [14]: 0.187 | combination Emax [15]: 0.343 | combination Emax [16]: 0.346 | combination Emax [17]: 0.331 | combination Emax [18]: 0.0919 | combination Emax [19]: 0.4 | combination Emax [20]: 0.387

C=CCn1c(=O)c2cnc(Nc3ccc(N4CCN(C)CC4)cc3)nc2n1-c1cccc(C(C)(C)O)n1 [AZD1775] + C[C@@H]1COCCN1C2=NC(=NC(=C2)C3(CC3)[S@](=N)(=O)C)C4=C5C=CNC5=NC=C4 [AZD6738] (first compound max 1 µM, partner max 10 µM)
combination Emax [1]: 0.461 | combination Emax [2]: 0.498 | combination Emax [3]: 0.983 | combination Emax [4]: 1 | combination Emax [5]: 0.683 | combination Emax [6]: 0.86 | combination Emax [7]: 0.761 | combination Emax [8]: 0.914 | combination Emax [9]: 0.754 | combination Emax [10]: 0.41 | combination Emax [11]: 0.849 | combination Emax [12]: 0.655 | combination Emax [13]: 0.722 | combination Emax [14]: 0.221 | combination Emax [15]: 1 | combination Emax [16]: 0.73 | combination Emax [17]: 0.393 | combination Emax [19]: 1 | combination Emax [20]: 0.563

COc1nnc2ccc(N3CCC(c4ccc(OCCN5CCN(C)C(=O)[C@H]5C)cc4)CC3)nn12 [AZD5153] + CN(CC[C@H](CSC1=CC=CC=C1)NC2=C(C=C(C=C2)S(=O)(=O)NC(=O)C3=CC=C(C=C3)N4CCC(CC4)[C@H](C5=CC=CC=C5C6=CC=C(C=C6)Cl)O)S(=O)(=O)C(F)(F)F)CCO [AZD4320] (first compound max 1 µM, 7x7, partner max 1 µM)
combination Emax [1]: 0.695 | combination Emax [2]: 0.36 | combination Emax [3]: 0.996 | combination Emax [4]: 1 | combination Emax [5]: 0.366 | combination Emax [7]: 0.548 | combination Emax [8]: 1 | combination Emax [9]: 0.666 | combination Emax [12]: 0.939 | combination Emax [14]: 0.277 | combination Emax [19]: 1 | combination Emax [20]: 0.451

Cc1c2c(nn1C)CSCc1cc(n(C)n1)CSc1cc(c3ccccc3c1)OCCCc1c(C(=O)O)n(C)c3c-2c(Cl)ccc13 [AZD5991] + C=CCn1c(=O)c2cnc(Nc3ccc(N4CCN(C)CC4)cc3)nc2n1-c1cccc(C(C)(C)O)n1 [AZD1775] (first compound max 1 µM, partner max 1 µM)
combination Emax [1]: 0.679 | combination Emax [2]: 0.545 | combination Emax [3]: 0.984 | combination Emax [4]: 1 | combination Emax [5]: 0.998 | combination Emax [6]: 0.76 | combination Emax [7]: 0.895 | combination Emax [8]: 1 | combination Emax [9]: 0.591 | combination Emax [11]: 0.885 | combination Emax [12]: 0.788 | combination Emax [13]: 0.465 | combination Emax [14]: 0.198 | combination Emax [15]: 0.921 | combination Emax [16]: 0.915 | combination Emax [17]: 0.387 | combination Emax [18]: 0.269 | combination Emax [19]: 1 | combination Emax [20]: 1

Reference: the supplement of paper PMC11061612
